Here are results for 19 compounds from patent US20240018105A1, “TROPOLONE DERIVATIVES AND TAUTOMERS THEREOF FOR IRON REGULATION IN ANIMALS” (Kinesid Therapeutics, Inc., priority 2019, published 2024).

Data set [1] is described as follows: Ligand facilitated Fe(III) efflux from liposomes. The note with it: 10 uM ligand concentration; for Liposome Fe transport kefflux at 10 10 μM: Table 1; for Liposome Fe transport Kefflux at 10 μM: Table 2. How it is done: Assay 1: Ligand Facilitated Fe(III) Efflux from Liposomes Preparation of POPC (1-palmitoyl-2-oleoyl-sn-glycero-3-phosphocholine): Cholesterol Liposomes:
A 1M buffer solution of MES and Tris was prepared by dissolving 121.14 grams of Tris base and 213.25 grams of MES hydrate in 500 mL of MilliQ water and adjusted to pH7.0 using an […] HCl solution before bringing the total volume of the solution to 1 L. A 500 mM solution of FeCl3 was prepared by dissolving 0.811 grams of anhydrous FeCl3 in 10 mL of a 0.1M H2SO4 aqueous solution. Inside buffer is prepared in a 50 mL falcon tube, which was added with 25 mL of MilliQ water, 1.61 g of sodium citrate, 1.5 mL of the above FeCl3 solution, and 2.5 mL of the 1M MES/Tris HCl buffer (pH=7.0), and finally additional MilliQ H2O to bring to a 50 mL final volume.
Lipid solution is prepared by dissolving 206.9 mg of POPC (1-palmitoyl-2-oleoyl-sn-glycero-3-phosphocholine) and 8.6 mg of cholesterol in 10 mL of ethanol.
The lipids solution and the inside buffer solution are independently loaded into 10 mL luer lock syringes for loading into a virgin cartridge on a Precision Nanosystems NanoAssembler to prepare unilamaller liposomes with the following parameters: 7.5 mL total volume, 1.5:1 mixing ratio of inside buffer:lipids solution, 8 mL/min flow rate, ambient temperature, 0.35 mL start waste, and 0.05 mL of end waste. 7.5 mL of liposomes is harvested for purification on a 6-inch long, 1-inch diameter Sephadex G-50 column wetted in 600 mM sodium ascorbate and 50 mM MES/Tris HCl pH 7.0 buffer. This buffer also serves as the column running buffer. The crude liposome solution is carefully loaded with minimal volume of running buffer above the top of the Sphadex, allowed to enter the matrix, and the column is run with the continued addition of running buffer. The eluting liposomes, observed as a milky and turbid solution, are collected until free iron begins to elute (observed as a deep purple color) and the fractions are pooled for phosphorus quantitation.
Phosphorus content of eluted liposomes was determined by the process outlined below. 10 uL of liposome elution and a running buffer blank are added to a 5 mL glass vial containing 450 uL of a 8.9 M aqueous H2SO4 solution, the mixture is heated to 225° C. for 25 minutes in an aluminum heat block to hydrolyze POPC and cooled for 5 minutes. 200 ul of a 30% hydrogen peroxide aqueous solution is added to each vial and heated to 225° C. for 25 minutes. After cooling, the phosphorus content was determined using an Abcam Phosphate Assay kit, with buffer subtracted phosphorus levels determined against a standard curve of phosphate included in the kit. Liposomes were diluted to 1 mM phosphate in Running Buffer for use in assays after accounting for dilutions made during phospholipid digestion.
Determination of the rate at which a small molecule ligand liberates (transport) Ferric iron from liposomes is performed in clear bottom black 384-well plates on a Spectramax i3x set to read the absorbance at 562 nm in the kinetic mode every 60 seconds for 120 minutes. 1 uL of serially diluted DMSO stock solution of a small molecule ligand is added to wells in triplicate to give the final concentrations of 40, 20, 10, 5, 2.5, and 1.25 uM of the ligand at 80 μL final volume, followed by addition of 1 μL of 100 mM Ferrozine in water to give a final concentration of 1 mM ferrozine. 78 uL of liposomes diluted to 1 mM phosphorus in running buffer is added to wells as quickly as possible (using a digital repeater mulchannel pipette) with the kinetic read initiated as rapidly as possible after addition of liposomes to all wells. Typically, eight compounds at six concentrations are tested in triplicate simultaneously.
Upon completion of kinetic read, the data for individual reads is fitted to a single phase association regression with the equation Y=(Y0−YMax)^(−kX)+YMax, with Y being the 562 absorbance value and X being time in minutes. […]

Data set [2] relates to DMT1-deficient Caco-2 cells. Description: shDMT1-Caco2 55Fe transport assay. The note with it: Caco-2. Type of data set: cell-based. An excerpt: Assay 2: shDMT1-Caco2 ^55Fe Transport Assay to Assess Ligand Ability in Transporting Fe (III)
Cells: DMT1-deficient Caco-2 cells (alias: “shDMT1,” or “4A” cells) were from Grillo et al. Science, 2017, and were cryopreserved in liquid nitrogen prior to use.
Reagents and supplies: ^55FeCl3 was obtained from PerkinElmer (Boston, MA). Iron(III) chloride (FeCl3) hexahydrate was obtained from Sigma. Dulbecco's Modified Eagle Medium (DMEM), fetal bovine serum (FBS), L-glutamine, MEM nonessential amino acids, penicillin-streptomycin, G418, formic acid, methanol, high-purity water, ammonium formate, dimethyl sulfoxide (DMSO) were purchased from Fisher Scientific. Propranolol, atenolol and carbutamide were obtained from Sigma-Aldrich Chemical Company (St Louis, MO). Scintillation cocktail was obtained from Research Product International Co. (Mount Prospect, IL). Stericup filter system (PES membrane, 0.22 um pore size) was purchased from Fisher Scientific. Coming item #3378 24-well transwell insert plates. Test articles: known compounds hinokitiol and deferiprone were purchased from Sigma. They are tested side by side with the small molecule ligands disclosed in this application. DMSO stocks (10 mM, which is 1,000× of the 10 μM dose level) of hinokitiol or test articles were prepared. A stock solution of 25 mM deferiprone in DMSO was prepared. The DMSO stock solutions were stored at −20° C. or below when not in use.
The growth medium was prepared according to the following table
Apical media (serum free DMEM, 10 mM MES, pH 6.5) was prepared. Apical master mix media was prepared fresh with the addition of 200 nM ^55Fe before each experiment. For the negative control propranolol and atenolol wells, 200 nM of non-radioactive iron was used.
The basolateral media was serum-free DMEM, 10 mM HEPES, 2% bovine serum albumin (BSA), pH 7.4.
For each experiment, cells were seeded into the 24-well transwell plates (0.5 mL of 50,000 cells/mL) with growth media. The basolateral companion plate was loaded with 1 mL of growth media. After 12-24 hr, both the apical and basolateral chamber were replaced with growth media. The apical media was changed 3× per week for 21-28 days, including a media change exactly 48 hr before the assay date.
On the assay day, the TEER values were measured and the average TEER values was obtained. Individual wells with TEER vaule >35% lower than the average of all wells were excluded. For the qualified wells, the apical layer (twice) and basolaterial (once) chambers were washed with PBS. The basolateral companion plate was then filled with 1 mL of basolateral media. Via addition down the side-wall of the apical well, 300 μL per well of the apical assay master mix, with the indicated dose level of test article, was added. Each dose was tested in triplicate. The plates were incubated (5% CO2 and 90% humidity at 37° C.) for the indicated timepoints. At each indicated timepoint, the basolateral supernatant was gently mixed via pipetting, and 200 μL of the basolateral supernatant was transferred to scintillation vials. To each scintillation counting vial, 5 mL of scintillation cocktail fluid was added. For each scintillation vial, the radioactivity (CPM) was determined with liquid scintillation counter LS6500. The counting time per vial was 5 min.
All raw CPM values are divided by the average value of blank DMSO solution to give a fold of change above the DMSO value. The mean and standard deviation of each compound at each concentration level and at each time point measured was calculated to give the fold change (fc) value.
For rank order compounds, the fc value of a ligand at 4 h time point is further divided by the fold change (fc) value of hinokitiol (a positive control compound) at an equimolar concentration to arrive at the FC (normalized fold of change) value. Data reported in Tables 1 and 2 is 4 hr time point FC=fc-ligand @ 3 uM/fc-hino @ 3 uM, and FC hino=1.

SMILES strings stand for the structures.

As to `COc1nccc(-c2ccc(O)c(=O)cc2)n1.O=C(O)C(F)(F)F` [Ex.38, 2-hydroxy-5-(2-methoxypyrimidin-4-yl)cyclohepta-2,4,6-trien-1-one], the “Liposome Fe transport kefflux at 10 10 μM” value in data set [1] is recorded as 0.1-5. Further, the “Caco2 shDMT1 transport FC @ 3 μM, 4h” value in data set [2] was 0.01-0.5.
Consider `COc1nccc(-c2cccc(=O)c(O)c2)n1.O=C(O)C(F)(F)F` [Ex.39, 2-hydroxy-4-(2-methoxypyrimidin-4-yl)cyclohepta-2,4,6-trien-1-one], for which the “Liposome Fe transport kefflux at 10 10 μM” value in data set [1] is given as 0.1-5. Also, in data set [2], the “Caco2 shDMT1 transport FC @ 3 μM, 4h” value is recorded as 0.01-0.5.
Taken in the same sequence, the figures for `O=c1cccc(-c2cnc(N3CCOCC3)nc2)cc1O` [Ex.42, 2-hydroxy-4-(2-morpholinopyrimidin-5-yl)cyclohepta-2,4,6-trien-1-one] were 7.5-10 and 0.01-0.5.
The corresponding values for `Cc1c(F)cncc1-c1cccc(=O)c(O)c1` [Ex.46, 4-(5-fluoro-4-methylpyridin-3-yl)-2-hydroxycyclohepta-2,4,6-trien-1-one] are 5-7.5 and 0.01-0.5.
The corresponding values for `O=c1c(O)ccccc1-c1ccncn1` [Ex.47, 2-hydroxy-7-(pyrimidin-4-yl)cyclohepta-2,4,6-trien-1-one] are 0.1-5 and 0.01-0.5.
Consider `O=C(O)C(F)(F)F.O=c1cccc(-c2ccncn2)cc1O` [Ex.48, 2-hydroxy-4-(pyrimidin-4-yl)cyclohepta-2,4,6-trien-1-one], for which, in data set [1], the “Liposome Fe transport kefflux at 10 10 μM” value was 0.1-5. Moreover, the “Caco2 shDMT1 transport FC @ 3 μM, 4h” value in data set [2] is listed as 0.01-0.5.
For the compound `O=c1ccc(-c2ccncn2)ccc1O` [Ex.49, 2-hydroxy-5-(pyrimidin-4-yl)cyclohepta-2,4,6-trien-1-one], the “Liposome Fe transport kefflux at 10 10 μM” value in data set [1] was 0.1-5. The “Caco2 shDMT1 transport FC @ 3 μM, 4h” value in data set [2] is listed as 0.01-0.5.
Turning to `O=c1cccc(-c2ccncc2F)cc1O` [Ex.50, 4-(3-fluoropyridin-4-yl)-2-hydroxycyclohepta-2,4,6-trien-1-one], the “Liposome Fe transport kefflux at 10 10 μM” value in data set [1] was 0.1-5. Also, the “Caco2 shDMT1 transport FC @ 3 μM, 4h” value in data set [2] was 0.01-0.5.
Taken in the same sequence, the figures for `O=c1ccc(-c2cnccc2F)ccc1O` [Ex.51, 5-(4-fluoropyridin-3-yl)-2-hydroxycyclohepta-2,4,6-trien-1-one] were 5-7.5 and 0.01-0.5.
Taken in the same sequence, the figures for `O=c1cccc(-c2cnccc2F)cc1O` [Ex.52, 4-(4-fluoropyridin-3-yl)-2-hydroxycyclohepta-2,4,6-trien-1-one] were 0.1-5 and 0.01-0.5.
Turning to `Cc1ncccc1-c1cccc(=O)c(O)c1` [Ex.53, 2-hydroxy-4-(2-methylpyridin-3-yl)cyclohepta-2,4,6-trien-1-one], the “Liposome Fe transport kefflux at 10 10 μM” value in data set [1] is recorded as 0.1-5. For the same compound, the “Caco2 shDMT1 transport FC @ 3 μM, 4h” value in data set [2] was 0.01-0.5.
Regarding `COc1ncccc1-c1cccc(=O)c(O)c1` [Ex.54, 2-hydroxy-4-(2-methoxypyridin-3-yl)cyclohepta-2,4,6-trien-1-one], the “Liposome Fe transport kefflux at 10 10 μM” value in data set [1] is on record as 10-25. Besides, the “Caco2 shDMT1 transport FC @ 3 μM, 4h” value in data set [2] is 0.01-0.5.
Regarding `Cc1cc(-c2cccc(=O)c(O)c2)cnc1N` [Ex.56, 4-(6-amino-5-methylpyridin-3-yl)-2-hydroxycyclohepta-2,4,6-trien-1-one], the “Liposome Fe transport kefflux at 10 10 μM” value in data set [1] is recorded as 0.1-5. Further, the “Caco2 shDMT1 transport FC @ 3 μM, 4h” value in data set [2] is given as 0.01-0.5.
On to `Cc1ncc(F)cc1-c1cccc(=O)c(O)c1` [Ex.58, 4-(5-fluoro-2-methylpyridin-3-yl)-2-hydroxycyclohepta-2,4,6-trien-1-one], for which, in data set [1], the “Liposome Fe transport kefflux at 10 10 μM” value was 0.1-5. Moreover, the “Caco2 shDMT1 transport FC @ 3 μM, 4h” value in data set [2] is reported as 0.01-0.5.
The corresponding values for `Cc1ncc(-c2ccc(O)c(=O)cc2)cc1F` [Ex.59, 5-(5-fluoro-6-methylpyridin-3-yl)-2-hydroxycyclohepta-2,4,6-trien-1-one] are 5-7.5 and 0.01-0.5.
The corresponding values for `CC(C)c1ccc(O)c(=O)c(-c2cncc(F)c2)c1` [Ex.61, 2-(5-fluoropyridin-3-yl)-7-hydroxy-4-isopropylcyclohepta-2,4,6-trien-1-one] are 7.5-10 and 0.01-0.5.
In the case of `O=c1ccccc(-c2cccc(F)n2)c1O` [Ex.69, 3-(6-fluoropyridin-2-yl)-2-hydroxycyclohepta-2,4,6-trien-1-one], the “Liposome Fe transport Kefflux at 10 μM” value in data set [1] was 10-25. Further, the “Caco2 shDMT1 transport FC @ 3 μM, 4h” value in data set [2] is on record as 0.01-0.5.
`O=c1ccccc(-c2cc(F)ccn2)c1O` [Ex.70, 3-(4-fluoropyridin-2-yl)-2-hydroxycyclohepta-2,4,6-trien-1-one]: the “Liposome Fe transport Kefflux at 10 μM” value in data set [1] is listed as 10-25. Further, the “Caco2 shDMT1 transport FC @ 3 μM, 4h” value in data set [2] was 0.01-0.5.
On to `O=c1ccccc(-c2cncs2)c1O` [Ex.75, 2-hydroxy-3-(thiazol-5-yl)cyclohepta-2,4,6-trien-1-one], for which the “Liposome Fe transport Kefflux at 10 μM” value in data set [1] was 0.1-5. The “Caco2 shDMT1 transport FC @ 3 μM, 4h” value in data set [2] was 0.5-1.
